# Source: patent EP2301627A1, “Novel antimalarial 3-azabicyclo[3.2.2]nonane derivatives” (University of Graz, priority 2009, dated 2011)
# Several values for one entry are separate records, joined by “and”; a condition that tells them apart may be missing. Equal values may be shown once. Read-outs that look alike come from different tables or passages of the source.
# What was measured:
# P. berghei ANKA strain = experiment: in vivo screening against Plasmodium berghei in mice; conditions: for MSD P. berghei: mean survival day; for Activity %: percent reduction of parasitemia vs control
# Procedure: • Method of infection of animals: • Male mice (Fü albino; specific pathogen free) weighing 20± 2g are infected intravenously with 2x10^7 P. berghei ANKA strain-infected erythrocytes from donor mice on day 0 of the experiment. […] Parasitemia is determined microscopically by counting 1000 red blood cells. • For low parasitemias (<1%) 2000 rbc's have to be counted. The difference between the mean value for the control group (taken as 100%) and that for each experimental group is calculated and expressed as percent reduction (=activity). • The mean survival day (MSD, in days) is recorded as well as observations concerning side effects of the drug.
# [1] = test system: K1 strain of P. falciparum (resistant to chloroquine and pyrimethamine); experiment: in vitro screening against Plasmodium falciparum, [3H]-hypoxanthine incorporation assay; format: cell-based; conditions: read-out: IC50 P.falc.
# Procedure: Antiplasmodial activity is determined using the K1 strain of P. falciparum (resistant to chloroquine and pyrimethamine). A modification of the [^3H]-hypoxanthine incorporation assay is used [Matile H, Pink JRL. in: Lefkovits I. and Pernis B. (Eds.). Immunological Methods, Academic Press, San Diego, 1990, 221-234.]. Briefly, infected human red blood cells in RPMI 1640 medium with 5% Albumax are exposed to serial drug dilutions in microtiter plates for 48 hours. Viability is assessed by measuring the incorporation of [^3H]-hypoxanthine by liquid scintillation counting 24 hours after the addition of the radiolabel. The counts are expressed as percentage of the control cultures, sigmoidal inhibition curves are drawn and IC50 values calculated.
# [2] = test system: T. b. rhodesiense STIB 900; experiment: in vitro screening against Trypanosoma brucei rhodesiense, Alamar Blue assay; format: cell-based; conditions: read-out: IC50 T.rho.
# Procedure: Minimum Essential Medium (50 µl) supplemented according to Baltz et al. [Baltz T, Baltz D, Giroud C, Crockett J. EMBO J., 1985, 4: 1273-1277] with 2-mercaptoethanol and 15% heat-inactivated horse serum is added to each well of a 96-well microtiter plate. Serial drug dilutions are added to the wells. Then 50 µl of trypanosome suspension (T. b. rhodesiense STIB 900) is added to each well and the plate incubated at 37°C under a 5% CO2 atmosphere for 72 hours. Alamar Blue (10 µl) is then added to each well and incubation continued for a further 2-4 hours. The plate is then read with a Millipore Cytofluor 2300 using an excitation wavelength of 530 nm and emission wavelength of 590 nm [Räz B, Iten M, Grether-Bühler Y, Kaminsky R, Brun R. Acta Trop., 1997, 68: 139-147]. Fluorescence development is expressed as percentage of the control, and IC50 values determined. Cytotoxicity is assessed using the same assay and L-6 cells.
# L-6 cells = experiment: Cytotoxicity, same Alamar Blue assay with L-6 cells; format: cell-based; conditions: Rattus norvegicus
# Procedure: Serial drug dilutions are added to the wells. Then 50 µl of trypanosome suspension (T. b. rhodesiense STIB 900) is added to each well and the plate incubated at 37°C under a 5% CO2 atmosphere for 72 hours. Alamar Blue (10 µl) is then added to each well and incubation continued for a further 2-4 hours. […] Fluorescence development is expressed as percentage of the control, and IC50 values determined. Cytotoxicity is assessed using the same assay and L-6 cells.
# [3] = Erythrocyte, K1 strain, infected human red blood cells, 48 hours drug exposure
# [4] = L6, L-6 cells, read-out: IC50 Cytox
smiles,measurement,setting,value
"c1ccc([C@@H]2CC3(N4CCCC4)CNCC2[C@H](c2ccccc2)C3)cc1 (racemic) [Example 1, (6RS,9RS)-(±)-6,9-Diphenyl-1-pyrrolidino-3-azabicyclo[3.2.2]nonane]",MSD P. berghei,P. berghei ANKA strain; ip 4x10mg/kg,4 days
same,Activity %,P. berghei ANKA strain; ip 4x10mg/kg,25.06%
same,MSD P. berghei,P. berghei ANKA strain; ip 4x20mg/kg,10 days
same,Activity %,P. berghei ANKA strain; ip 4x20mg/kg,60.11%
same,MSD P. berghei,P. berghei ANKA strain; ip 4x50mg/kg,12.3 days and 15 days
same,Activity %,P. berghei ANKA strain; ip 4x50mg/kg,94.32% and 94.77%
same,MSD P. berghei,P. berghei ANKA strain; po 1x100mg/kg,12 days
same,Activity %,P. berghei ANKA strain; po 1x100mg/kg,70.52%
same,side effects of the drug,P. berghei ANKA strain; po 1x200mg/kg,toxic
same,MSD P. berghei,P. berghei ANKA strain; po 1x200mg/kg,16 days
same,Activity %,P. berghei ANKA strain; po 1x200mg/kg,66.13%
same,MSD P. berghei,P. berghei ANKA strain; po 4x100mg/kg,18.6 days
same,Activity %,P. berghei ANKA strain; po 4x100mg/kg,97.7%
same,IC50,[1]; [3],0.095 µM
same,IC50,"[2]; STIB 900, 72 hours incubation",1 µM
same,IC50,L-6 cells; [4],72.9 µM
C[C@@H]1CC[C@H]2[C@@H](C)C(=O)O[C@@H]3O[C@@]4(C)CC[C@@H]1[C@]32OO4 [Artemisinin],IC50,[1]; [3],0.0064 µM
same,IC50,L-6 cells; [4],450 µM
"CCN(CC)CCCC(C)Nc1ccnc2cc(Cl)ccc12 (stereo not shown) [Chloroquine, reference compound]",MSD P. berghei,P. berghei ANKA strain; ip 4x10mg/kg,20 days
same,Activity %,P. berghei ANKA strain; ip 4x10mg/kg,99.6%
same,MSD P. berghei,P. berghei ANKA strain; po 4x10mg/kg,20 days
same,Activity %,P. berghei ANKA strain; po 4x10mg/kg,99.6%
same,IC50,"[1]; K1, Erythrocyte, 48 h",0.12 µM
same,IC50,"L-6 cells; L6, read-out: IC50 Cytox",188 µM
Nc1nc(N)nc(Nc2ccc([As]3SCC(CO)S3)cc2)n1 (stereo not shown) [Melarsoprol],IC50,[2]; 72 h,0.0039 µM
same,IC50,"L-6 cells; L6, read-out: IC50 Cytox",7.78 µM
N=C(N)c1ccc(OCCCCCOc2ccc(C(=N)N)cc2)cc1 [Pentamidine],IC50,"[2]; STIB 900, 72 hours incubation",0.0075 µM
same,IC50,L-6 cells; [4],4720 µM
